Experimental data from US20030013694A1, “Use and compositions of antiprogestins for treatment of prostate diseases” (priority 2001, published 2003).

Legend:
[1] = test system: androgen-independent prostate cancer cells; settings: in vitro and in vivo; cited from earlier work
[2] = test system: LNCaP prostate tumor cells; experiment: LNCaP human prostate cancer model in testosterone-supplemented male nude mice; assay type: in vivo; settings: compared to control and castration
Experimental: Male nude mice (M&B) were supplemented with testosterone pellets (Innovative Research of America). LNCaP prostate cancer cells (obtainable from ATCC), obtained from cell culture and suspended in matrigel, were implanted s.c. in the inguinal region of the mice. Treatment was started when the tumors were approximately 25 mm^2 in size. Treatment was continued until progression of the tumors, Experimental groups were: 1) control (vehicle), 2) castration, 3) the antiandrogen casodex, 30 mg/kg s.c., 4) the antiprogestin mifepristone (RU-486), 10 mg/kg sec., and 5) 11β-(4-acetylphenyl)-17β-hydroxy-17α-(1,1,2,2,2-pentafluoroethyl)-estra-4,9-dien-3-one (antiprogestin (I)), 10 mg/kg sc., 5 times weekly. The tumor area was determined by caliper measurements. The Kruskal Wallis test was used for statistical analysis of intergroup differences of mean values. The tumor weight was determined at the end of the experiment.

R3327H = settings: administered alone; R3327H prostate cancer model; cited from earlier work

Structure (SMILES)	effect on apoptosis [1]	tumor growth inhibition (tumor area by caliper) ([2]; 10 mg/kg s.c., 5 times weekly)	inhibition of tumor growth (R3327H)	tumor growth inhibition (tumor area by caliper) ([2]; 30 mg/kg s.c.)
CC/C(=C(\c1ccccc1)c1ccc(OCCN(C)C)cc1)c1ccccc1 [tamoxifen]	effective inhibitors of apoptosis	–	–	–
CC#C[C@]1(O)CC[C@H]2[C@@H]3CCC4=CC(=O)CCC4=C3[C@@H](c3ccc(N(C)C)cc3)C[C@@]21C [mifepristone]	effective inhibitors of apoptosis	totally ineffective	substantial inhibition of tumor growth	–
CC(O)(CS(=O)(=O)c1ccc(F)cc1)C(=O)Nc1ccc(C#N)c(C(F)(F)F)c1 (centres unmarked) [casodex]	–	–	–	totally ineffective
